Data reported in patent publication US10954268B2, “Method of treating melanocortin-4 receptor-associated disorders in heterozygous carriers” (RHYTHM PHARMACEUTICALS, INC., priority 2011, dated 2021).
Bridges are numbered along the chain shown (N, C = ends). [ ]: non-standard residue; d: D form.

Test system: Diet induced obesity (DIO) littermate C57B1/6J mice
Assay: Treatment of obese MC4R+/− heterozygotic mice by Alzet pump infusion, body weight measured
Format: in vivo
Conditions: Alzet pump infusion 1200 nmol/kg/day for 8 days, FIG. 3
Procedure: Body weight was measured.
The weight change due to the exposure to the compound of SEQ ID NO: 140 in mice that are either wild type for the MC4R gene, or express only a single MC4R allele, or mice without any MC4R protein expression were compared.

Ac-Arg-c(Cys-D-Ala-His-D-Phe-Arg-Trp-Cys)-NH2 (Ac-RC[dA]H[dF]RWC-NH2; disulfide 2-8 (inferred)) [SEQ ID NO: 140]
weight loss over the treatment period (DIO homozygous MC4R knockout mice (−/−), no MC4R expression): did not show significant weight loss | body weight lost over the treatment period (DIO mice heterozygous for the MC4R gene (+/−)): about 1 gram
